{"source": "PubChem BioAssay AID1963970", "about": "(Molecular Pharmacology Branch, DTP, NCI, 2024);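 note: viability read 7 days after compound addition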", "system": "931267-113-T-J1-PDC multicell spheroid viability", "assay": "Anticancer human tumor 931267-113-T-J1-PDC patient-derived colon adenocarcinoma cell line growth inhibition [PI3K]", "conditions": "for IC50: curve of first compound; for viability, T/C: stronger effect = lower value", "procedure,_shortened": "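Stroma-containing spheroids: tumor line, pooled-donor HUVEC, hMSC. Treatments: targeted agents with PI3K inhibitors. Dosing: clinically relevant, half-log spacing, 10 microM ceiling without known Cmax. Read-out: cell viability.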", "key": {"[1]": {"conditions": "second compound 0.0316 µM, first compound 0.0316 µM"}, "[2]": {"conditions": "second compound 0.0316 µM, first compound 0.1 µM"}, "[3]": {"conditions": "second compound 0.1 µM, first compound 0.0316 µM"}, "[4]": {"conditions": "second compound 0.1 µM, first compound 0.1 µM"}, "[5]": {"conditions": "second compound 0.316 µM, first compound 0.0316 µM"}, "[6]": {"conditions": "second compound 0.316 µM, first compound 0.1 µM"}, "[7]": {"conditions": "second compound 1 µM, first compound 0.0316 µM"}, "[8]": {"conditions": "second compound 1 µM, first compound 0.1 µM"}}, "data": [{"smiles": "CC(C)NCC(C(=O)N1CCN(c2ncnc3c2C(C)CC3O)CC1)c1ccc(Cl)cc1", "note": "(centres undefined) + Cc1nc(NC(=O)N2CCCC2C(N)=O)sc1-c1ccnc(C(C)(C)C(F)(F)F)c1", "values": [{"measurement": "IC50", "setting": "second compound 0.0316 µM", "result": "> 10", "unit": "µM"}, {"measurement": "IC50", "setting": "second compound 0.1 µM", "result": "> 10", "unit": "µM"}, {"measurement": "IC50", "setting": "second compound 0.316 µM", "result": "> 10", "unit": "µM"}, {"measurement": "IC50", "setting": "second compound 1 µM", "result": "> 10", "unit": "µM"}, {"measurement": "IC50", "setting": "second compound 3.16 µM", "result": "> 10", "unit": "µM"}, {"measurement": "IC50", "setting": "second compound 10 µM", "result": "> 10", "unit": "µM"}, {"measurement": "viability, T/C", "setting": "[1]", "result": 103, "unit": "%"}, {"measurement": "viability, T/C", "setting": "[2]", "result": 103, "unit": "%"}, {"measurement": "viability, T/C", "setting": "second compound 0.0316 µM, first compound 0.316 µM", "result": 90.9, "unit": "%"}, {"measurement": "viability, T/C", "setting": "second compound 0.0316 µM, first compound 1 µM", "result": 95.2, "unit": "%"}, {"measurement": "viability, T/C", "setting": "second compound 0.0316 µM, first compound 3.16 µM", "result": 97.6, "unit": "%"}, {"measurement": "viability, T/C", "setting": "second compound 0.0316 µM, first compound 10 µM", "result": 73.5, "unit": "%"}, {"measurement": "viability, T/C", "setting": "[3]", "result": 97.8, "unit": "%"}, {"measurement": "viability, T/C", "setting": "[4]", "result": 85.5, "unit": "%"}, {"measurement": "viability, T/C", "setting": "second compound 0.1 µM, first compound 0.316 µM", "result": 92.6, "unit": "%"}, {"measurement": "viability, T/C", "setting": "second compound 0.1 µM, first compound 1 µM", "result": 86.7, "unit": "%"}, {"measurement": "viability, T/C", "setting": "second compound 0.1 µM, first compound 3.16 µM", "result": 83.5, "unit": "%"}, {"measurement": "viability, T/C", "setting": "second compound 0.1 µM, first compound 10 µM", "result": 71.7, "unit": "%"}, {"measurement": "viability, T/C", "setting": "[5]", "result": 97.9, "unit": "%"}, {"measurement": "viability, T/C", "setting": "[6]", "result": 89.6, "unit": "%"}, {"measurement": "viability, T/C", "setting": "second compound 0.316 µM, first compound 0.316 µM", "result": 88.7, "unit": "%"}, {"measurement": "viability, T/C", "setting": "second compound 0.316 µM, first compound 1 µM", "result": 84, "unit": "%"}, {"measurement": "viability, T/C", "setting": "second compound 0.316 µM, first compound 3.16 µM", "result": 80.4, "unit": "%"}, {"measurement": "viability, T/C", "setting": "second compound 0.316 µM, first compound 10 µM", "result": 68.6, "unit": "%"}, {"measurement": "viability, T/C", "setting": "[7]", "result": 82.2, "unit": "%"}, {"measurement": "viability, T/C", "setting": "[8]", "result": 80.4, "unit": "%"}, {"measurement": "viability, T/C", "setting": "second compound 1 µM, first compound 0.316 µM", "result": 89.3, "unit": "%"}, {"measurement": "viability, T/C", "setting": "second compound 1 µM, first compound 1 µM", "result": 88.8, "unit": "%"}, {"measurement": "viability, T/C", "setting": "second compound 1 µM, first compound 3.16 µM", "result": 79.9, "unit": "%"}, {"measurement": "viability, T/C", "setting": "second compound 1 µM, first compound 10 µM", "result": 67.7, "unit": "%"}, {"measurement": "viability, T/C", "setting": "second compound 3.16 µM, first compound 0.0316 µM", "result": 73.2, "unit": "%"}, {"measurement": "viability, T/C", "setting": "second compound 3.16 µM, first compound 0.1 µM", "result": 81.1, "unit": "%"}, {"measurement": "viability, T/C", "setting": "second compound 3.16 µM, first compound 0.316 µM", "result": 67.7, "unit": "%"}, {"measurement": "viability, T/C", "setting": "second compound 3.16 µM, first compound 1 µM", "result": 65, "unit": "%"}, {"measurement": "viability, T/C", "setting": "second compound 3.16 µM, first compound 3.16 µM", "result": 70, "unit": "%"}, {"measurement": "viability, T/C", "setting": "second compound 3.16 µM, first compound 10 µM", "result": 61, "unit": "%"}, {"measurement": "viability, T/C", "setting": "second compound 10 µM, first compound 0.0316 µM", "result": 60.4, "unit": "%"}, {"measurement": "viability, T/C", "setting": "second compound 10 µM, first compound 0.1 µM", "result": 52.4, "unit": "%"}, {"measurement": "viability, T/C", "setting": "second compound 10 µM, first compound 0.316 µM", "result": 59, "unit": "%"}, {"measurement": "viability, T/C", "setting": "second compound 10 µM, first compound 1 µM", "result": 57.4, "unit": "%"}, {"measurement": "viability, T/C", "setting": "second compound 10 µM, first compound 3.16 µM", "result": 62.8, "unit": "%"}, {"measurement": "viability, T/C", "setting": "second compound 10 µM, first compound 10 µM", "result": 51.4, "unit": "%"}]}, {"smiles": "Cn1ncnc1[C@H]1c2n[nH]c(=O)c3cc(F)cc(c23)N[C@@H]1c1ccc(F)cc1", "note": "+ CC(Nc1ccc2c(c1)OCCn1cc(N3C(=O)OCC3C(F)F)nc1-2)C(N)=O", "values": [{"measurement": "IC50", "setting": "second compound 0.00316 µM", "result": "> 0.1", "unit": "µM"}, {"measurement": "IC50", "setting": "second compound 0.01 µM", "result": "> 0.1", "unit": "µM"}, {"measurement": "IC50", "setting": "second compound 0.0316 µM", "result": "> 0.1", "unit": "µM"}, {"measurement": "IC50", "setting": "second compound 0.1 µM", "result": "> 0.1", "unit": "µM"}, {"measurement": "IC50", "setting": "second compound 0.316 µM", "result": "> 0.1", "unit": "µM"}, {"measurement": "IC50", "setting": "second compound 1 µM", "result": "> 0.1", "unit": "µM"}, {"measurement": "viability, T/C", "setting": "second compound 0.00316 µM, first compound 0.000316 µM", "result": 98.5, "unit": "%"}, {"measurement": "viability, T/C", "setting": "second compound 0.00316 µM, first compound 0.001 µM", "result": 113, "unit": "%"}, {"measurement": "viability, T/C", "setting": "second compound 0.00316 µM, first compound 0.00316 µM", "result": 104, "unit": "%"}, {"measurement": "viability, T/C", "setting": "second compound 0.00316 µM, first compound 0.01 µM", "result": 111, "unit": "%"}, {"measurement": "viability, T/C", "setting": "second compound 0.00316 µM, first compound 0.0316 µM", "result": 103, "unit": "%"}, {"measurement": "viability, T/C", "setting": "second compound 0.00316 µM, first compound 0.1 µM", "result": 102, "unit": "%"}, {"measurement": "viability, T/C", "setting": "second compound 0.01 µM, first compound 0.000316 µM", "result": 114, "unit": "%"}, {"measurement": "viability, T/C", "setting": "second compound 0.01 µM, first compound 0.001 µM", "result": 108, "unit": "%"}, {"measurement": "viability, T/C", "setting": "second compound 0.01 µM, first compound 0.00316 µM", "result": 91.5, "unit": "%"}, {"measurement": "viability, T/C", "setting": "second compound 0.01 µM, first compound 0.01 µM", "result": 114, "unit": "%"}, {"measurement": "viability, T/C", "setting": "second compound 0.01 µM, first compound 0.0316 µM", "result": 104, "unit": "%"}, {"measurement": "viability, T/C", "setting": "second compound 0.01 µM, first compound 0.1 µM", "result": 108, "unit": "%"}, {"measurement": "viability, T/C", "setting": "second compound 0.0316 µM, first compound 0.000316 µM", "result": 109, "unit": "%"}, {"measurement": "viability, T/C", "setting": "second compound 0.0316 µM, first compound 0.001 µM", "result": 96.9, "unit": "%"}, {"measurement": "viability, T/C", "setting": "second compound 0.0316 µM, first compound 0.00316 µM", "result": 105, "unit": "%"}, {"measurement": "viability, T/C", "setting": "second compound 0.0316 µM, first compound 0.01 µM", "result": 103, "unit": "%"}, {"measurement": "viability, T/C", "setting": "[1]", "result": 108, "unit": "%"}, {"measurement": "viability, T/C", "setting": "[2]", "result": 102, "unit": "%"}, {"measurement": "viability, T/C", "setting": "second compound 0.1 µM, first compound 0.000316 µM", "result": 101, "unit": "%"}, {"measurement": "viability, T/C", "setting": "second compound 0.1 µM, first compound 0.001 µM", "result": 87.5, "unit": "%"}, {"measurement": "viability, T/C", "setting": "second compound 0.1 µM, first compound 0.00316 µM", "result": 86.1, "unit": "%"}, {"measurement": "viability, T/C", "setting": "second compound 0.1 µM, first compound 0.01 µM", "result": 89.1, "unit": "%"}, {"measurement": "viability, T/C", "setting": "[3]", "result": 95.2, "unit": "%"}, {"measurement": "viability, T/C", "setting": "[4]", "result": 87, "unit": "%"}, {"measurement": "viability, T/C", "setting": "second compound 0.316 µM, first compound 0.000316 µM", "result": 95.6, "unit": "%"}, {"measurement": "viability, T/C", "setting": "second compound 0.316 µM, first compound 0.001 µM", "result": 89.6, "unit": "%"}, {"measurement": "viability, T/C", "setting": "second compound 0.316 µM, first compound 0.00316 µM", "result": 81.2, "unit": "%"}, {"measurement": "viability, T/C", "setting": "second compound 0.316 µM, first compound 0.01 µM", "result": 80.4, "unit": "%"}, {"measurement": "viability, T/C", "setting": "[5]", "result": 85.1, "unit": "%"}, {"measurement": "viability, T/C", "setting": "[6]", "result": 94.1, "unit": "%"}, {"measurement": "viability, T/C", "setting": "second compound 1 µM, first compound 0.000316 µM", "result": 78.2, "unit": "%"}, {"measurement": "viability, T/C", "setting": "second compound 1 µM, first compound 0.001 µM", "result": 82, "unit": "%"}, {"measurement": "viability, T/C", "setting": "second compound 1 µM, first compound 0.00316 µM", "result": 80.7, "unit": "%"}, {"measurement": "viability, T/C", "setting": "second compound 1 µM, first compound 0.01 µM", "result": 76.9, "unit": "%"}, {"measurement": "viability, T/C", "setting": "[7]", "result": 84.6, "unit": "%"}, {"measurement": "viability, T/C", "setting": "[8]", "result": 73.6, "unit": "%"}]}]}
